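Five concentrations, 48 hours, 96-well plates. At the GI50, growth is halved.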 The source made the active and inactive calls. No stated cut-off is given here; in the data, active = GI50 up to about 1.1 µM and inactive = higher.
How the values were obtained:
Test in all cases: NCI tumour cell line growth inhibition, 48 h
OVCAR-4 = test system: OVCAR-4
DU-145 = test system: DU-145
KM12 = test system: KM12
SK-MEL-2 = test system: SK-MEL-2
NCI-H460 = test system: NCI-H460
HL-60 = test system: HL-60
MDA-MB-435 = test system: MDA-MB-435
OVCAR-5 = test system: OVCAR-5
HOP-62 = test system: HOP-62
IGROV-1 = test system: IGROV-1
SF-268 = test system: SF-268
MCF7 = test system: MCF7
PC-3 = test system: PC-3
CAKI-1 = test system: CAKI-1
T47D = test system: T47D
ACHN = test system: ACHN
EKVX = test system: EKVX
SNB-75 = test system: SNB-75
LXFL 529 = test system: LXFL 529

Row | SMILES | GI50 (OVCAR-4) | GI50 (DU-145) | GI50 (KM12) | GI50 (SK-MEL-2) | GI50 (NCI-H460) | GI50 (HL-60) | GI50 (MDA-MB-435) | GI50 (OVCAR-5) | GI50 (HOP-62) | GI50 (IGROV-1) | GI50 (SF-268) | GI50 (MCF7) | GI50 (PC-3) | GI50 (CAKI-1) | GI50 (T47D) | GI50 (ACHN) | GI50 (EKVX) | GI50 (SNB-75) | GI50 (LXFL 529)
1 | CCCCCCCCCCCCC1NC(=N)NC2(CCCO2)C1C(=O)OC (stereo not drawn) | 5.51 µM (inactive) | 15.3 µM (inactive) | 1.84 µM (inactive) | 4.29 µM (inactive) | 2.99 µM (inactive) | 1.53 µM (inactive) | 3.34 µM (inactive) | 8.17 µM (inactive) | 7.18 µM (inactive) | 2.3 µM (inactive) | 3.84 µM (inactive) | 2.9 µM (inactive) | 1.67 µM (inactive) | 12.8 µM (inactive) | 6.4 µM (inactive) | 10.4 µM (inactive) | 17.5 µM (inactive) | 3.61 µM (inactive) | –
2 | CC1CCC(=O)C(C(=O)CC2CC(=O)N(C)C(=O)C2)C1 (stereo not drawn) | > 100 µM (inactive) | > 100 µM (inactive) | > 100 µM (inactive) | > 100 µM (inactive) | > 100 µM (inactive) | > 100 µM (inactive) | > 100 µM (inactive) | > 100 µM (inactive) | > 100 µM (inactive) | > 100 µM (inactive) | > 100 µM (inactive) | > 100 µM (inactive) | > 100 µM (inactive) | > 100 µM (inactive) | > 100 µM (inactive) | > 100 µM (inactive) | > 100 µM (inactive) | 35.3 µM (inactive) | –
3 | O=C(O)CCSCc1ccc(I)cc1 | > 100 µM (inactive) | > 100 µM (inactive) | > 100 µM (inactive) | > 100 µM (inactive) | > 100 µM (inactive) | > 100 µM (inactive) | > 100 µM (inactive) | > 100 µM (inactive) | > 100 µM (inactive) | > 100 µM (inactive) | > 100 µM (inactive) | > 100 µM (inactive) | > 100 µM (inactive) | > 100 µM (inactive) | > 100 µM (inactive) | > 100 µM (inactive) | > 100 µM (inactive) | 72.4 µM (inactive) | –
4 | O=C1N/C(=N\N=C\c2ccccc2)C(c2ccccc2)O1 (stereo not drawn) | 38.5 µM (inactive) | 53 µM (inactive) | > 100 µM (inactive) | > 100 µM (inactive) | 38.4 µM (inactive) | 30.1 µM (inactive) | > 100 µM (inactive) | > 100 µM (inactive) | 65.6 µM (inactive) | > 100 µM (inactive) | 52.2 µM (inactive) | 68.4 µM (inactive) | 61.8 µM (inactive) | 74.1 µM (inactive) | 79.8 µM (inactive) | 53.5 µM (inactive) | 66.8 µM (inactive) | < 0.01 µM (active) | –
5 | C=C1C(=O)O[C@H]2C/C(C)=C/CC/C(C)=C/CC[C@@](C)(O)[C@@H](I)C[C@@H]12 | 4.94 µM (inactive) | 9.44 µM (inactive) | 5.65 µM (inactive) | 11.7 µM (inactive) | 13.2 µM (inactive) | 2.58 µM (inactive) | 4.6 µM (inactive) | 14.5 µM (inactive) | 16.4 µM (inactive) | 3.15 µM (inactive) | 14 µM (inactive) | 5.57 µM (inactive) | 8.26 µM (inactive) | 8.93 µM (inactive) | 11.7 µM (inactive) | 8.77 µM (inactive) | 7.14 µM (inactive) | 11 µM (inactive) | –
6 | CC(=O)C(C(c1ccccc1)N1CCOCC1)N1CCOCC1 (stereo not drawn) | > 100 µM (inactive) | > 100 µM (inactive) | > 100 µM (inactive) | > 100 µM (inactive) | 19.2 µM (inactive) | > 100 µM (inactive) | > 100 µM (inactive) | > 100 µM (inactive) | > 100 µM (inactive) | > 100 µM (inactive) | > 100 µM (inactive) | > 100 µM (inactive) | > 100 µM (inactive) | > 100 µM (inactive) | > 100 µM (inactive) | > 100 µM (inactive) | > 100 µM (inactive) | > 100 µM (inactive) | –
7 | CC1(C)C(CBr)=[N+]([O-])C(C)(C)N1O | 1.77 µM (inactive) | > 10 µM (inactive) | > 10 µM (inactive) | > 9.29 µM (inactive) | > 10 µM (inactive) | > 4.6 µM (inactive) | 4.03 µM (inactive) | > 10 µM (inactive) | > 10 µM (inactive) | > 6.31 µM (inactive) | 9.71 µM (inactive) | 4.91 µM (inactive) | > 10 µM (inactive) | 2.56 µM (inactive) | 2.16 µM (inactive) | 3.68 µM (inactive) | > 5.6 µM (inactive) | 3.17 µM (inactive) | –
8 | O=C(c1ccccc1)C(Nc1ccc2ccccc2c1)c1ccccc1 (stereo not drawn) | 38.1 µM (inactive) | 42 µM (inactive) | 19.8 µM (inactive) | 14.2 µM (inactive) | 21.2 µM (inactive) | 13.1 µM (inactive) | 4.85 µM (inactive) | > 52.7 µM (inactive) | 36.6 µM (inactive) | 29.7 µM (inactive) | 39.5 µM (inactive) | 12.7 µM (inactive) | 17.6 µM (inactive) | > 100 µM (inactive) | 11.3 µM (inactive) | 48.8 µM (inactive) | 17.6 µM (inactive) | 33.5 µM (inactive) | –
9 | CC(=O)/N=C1\N/C(=C\c2ccc(Cl)cc2)C(=O)N1/C=C1\C(=O)Oc2ccccc2C1=O | > 100 µM (inactive) | > 100 µM (inactive) | > 100 µM (inactive) | > 100 µM (inactive) | > 100 µM (inactive) | > 100 µM (inactive) | 51.2 µM (inactive) | > 100 µM (inactive) | > 100 µM (inactive) | > 100 µM (inactive) | 45.9 µM (inactive) | > 100 µM (inactive) | > 100 µM (inactive) | > 100 µM (inactive) | > 100 µM (inactive) | > 100 µM (inactive) | 13.3 µM (inactive) | 27.5 µM (inactive) | –
10 | Cc1ccc(C(=O)C(Cl)C(Cl)c2ccc(C)cc2)cc1 (stereo not drawn) | 2.33 µM (inactive) | 5.18 µM (inactive) | 3.68 µM (inactive) | 16.3 µM (inactive) | 8.38 µM (inactive) | 1.24 µM (inactive) | 2.97 µM (inactive) | 7.87 µM (inactive) | 18.1 µM (inactive) | 2.58 µM (inactive) | 5.56 µM (inactive) | 4.56 µM (inactive) | 5 µM (inactive) | 2.59 µM (inactive) | 2.08 µM (inactive) | 1.72 µM (inactive) | 5.42 µM (inactive) | 8.22 µM (inactive) | –
11 | CCCCN(c1ccccc1)c1ncnc2c1cnn2C | 27.1 µM (inactive) | 53.6 µM (inactive) | 46 µM (inactive) | 27.5 µM (inactive) | 31.6 µM (inactive) | 19.1 µM (inactive) | 37.5 µM (inactive) | 47.4 µM (inactive) | 38.8 µM (inactive) | 34.7 µM (inactive) | 34.8 µM (inactive) | 32.4 µM (inactive) | 27.5 µM (inactive) | 45.1 µM (inactive) | 20.2 µM (inactive) | 37.7 µM (inactive) | 31.8 µM (inactive) | 11.7 µM (inactive) | –
12 | COc1ccc(OC)c2c1C[C@@H]1C(C#N)N3[C@H](Cc4c(OC)ccc(OC)c4[C@@H]3C)C(=O)N1[C@H]2C (stereo partly drawn) | 3.23 µM (inactive) | 22.4 µM (inactive) | 2.77 µM (inactive) | 2.16 µM (inactive) | 7.85 µM (inactive) | 1.85 µM (inactive) | 3.33 µM (inactive) | 8.09 µM (inactive) | 22.5 µM (inactive) | 4.56 µM (inactive) | 2.15 µM (inactive) | 3.91 µM (inactive) | 3.18 µM (inactive) | 4.72 µM (inactive) | 3.11 µM (inactive) | 2.8 µM (inactive) | 5.77 µM (inactive) | 1.08 µM (active) | –
13 | CN[C@@H](C)[C@H](N)c1ccccc1 | – | – | > 100 µM (inactive) | – | > 100 µM (inactive) | – | – | – | – | > 100 µM (inactive) | – | – | – | > 100 µM (inactive) | – | > 100 µM (inactive) | > 100 µM (inactive) | > 100 µM (inactive) | > 100 µM (inactive)
14 | NC(=O)CN1C=CCC(C(N)=O)=C1 [CARICOTAMIDE] | > 100 µM (inactive) | > 100 µM (inactive) | > 100 µM (inactive) | > 100 µM (inactive) | > 100 µM (inactive) | > 100 µM (inactive) | > 100 µM (inactive) | > 100 µM (inactive) | > 100 µM (inactive) | > 100 µM (inactive) | > 100 µM (inactive) | > 100 µM (inactive) | > 100 µM (inactive) | > 100 µM (inactive) | > 100 µM (inactive) | > 100 µM (inactive) | > 100 µM (inactive) | > 100 µM (inactive) | –
15 | CNc1ccc(-c2nc3cc(C)ccc3o2)cc1 | > 100 µM (inactive) | > 100 µM (inactive) | > 100 µM (inactive) | > 100 µM (inactive) | > 100 µM (inactive) | > 100 µM (inactive) | > 100 µM (inactive) | > 100 µM (inactive) | 19.9 µM (inactive) | > 100 µM (inactive) | 42.7 µM (inactive) | > 100 µM (inactive) | > 100 µM (inactive) | > 100 µM (inactive) | 13.8 µM (inactive) | 57.3 µM (inactive) | 32.4 µM (inactive) | 14.7 µM (inactive) | –
16 | O=C(O)c1cccc(S(=O)(=O)NCCO)c1 | > 100 µM (inactive) | > 100 µM (inactive) | > 100 µM (inactive) | > 100 µM (inactive) | > 100 µM (inactive) | > 100 µM (inactive) | > 100 µM (inactive) | > 100 µM (inactive) | > 100 µM (inactive) | > 100 µM (inactive) | > 100 µM (inactive) | > 100 µM (inactive) | > 100 µM (inactive) | > 100 µM (inactive) | > 100 µM (inactive) | > 100 µM (inactive) | > 100 µM (inactive) | > 100 µM (inactive) | –

From ChEMBL document CHEMBL1201862, “PubChem BioAssay data set” (2004)
